Measured values taken from US20200069648A1, “HALOALLYLAMINE PYRAZOLE DERIVATIVE INHIBITORS OF LYSYL OXIDASES AND USES THEREOF” (Pharmaxis Ltd., priority 2017, published 2020).
Where a name gives a salt, the structure may show the parent alone.

Columns and labels:
Format in all cases: biochemical
Recombinant human MAO-B = biological target: T1, Recombinant human MAO-B (Homo sapiens, UniProt P27338); assay: Human recombinant MAO-B inhibition; settings: benzylamine 100 μM
T1 construct: purchased Sigma Aldrich
T1 sequence (P27338 1-520): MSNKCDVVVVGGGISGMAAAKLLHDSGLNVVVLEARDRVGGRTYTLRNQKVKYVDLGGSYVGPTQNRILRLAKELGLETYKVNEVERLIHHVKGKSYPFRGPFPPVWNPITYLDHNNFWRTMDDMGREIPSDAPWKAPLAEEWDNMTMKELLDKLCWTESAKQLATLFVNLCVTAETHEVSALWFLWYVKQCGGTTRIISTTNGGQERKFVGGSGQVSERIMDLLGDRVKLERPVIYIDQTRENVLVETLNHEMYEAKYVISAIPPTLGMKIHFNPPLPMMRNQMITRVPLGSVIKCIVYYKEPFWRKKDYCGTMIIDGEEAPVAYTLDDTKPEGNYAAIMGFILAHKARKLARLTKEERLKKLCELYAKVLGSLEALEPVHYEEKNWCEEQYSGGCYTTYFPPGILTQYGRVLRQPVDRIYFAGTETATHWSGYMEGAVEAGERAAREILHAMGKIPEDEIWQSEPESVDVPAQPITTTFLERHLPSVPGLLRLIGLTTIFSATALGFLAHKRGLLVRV
Procedure: Method to Determine the Ability of Compounds of Formula I to Inhibit Human Recombinant MAO-B
The specificity of the compounds of this invention was tested by determining their ability to inhibit MAO-B activities in vitro. Recombinant human MAO-B (0.06 mg/mL; Sigma Aldrich) was used as source of MAO-B enzyme activities. The assay was performed in a similar way as for human SSAO/VAP-1 (Example 46) except, the substrate benzylamine was used at 100 μM.

Bovine LOX = biological target: T2, Bovine LOX (Bos taurus, UniProt P33072); assay: LOX amine oxidase inhibition, peroxidase-coupled Amplex Red assay; settings: 30 min preincubation at 37° C., putrescine substrate
T2 sequence (P33072 170-418): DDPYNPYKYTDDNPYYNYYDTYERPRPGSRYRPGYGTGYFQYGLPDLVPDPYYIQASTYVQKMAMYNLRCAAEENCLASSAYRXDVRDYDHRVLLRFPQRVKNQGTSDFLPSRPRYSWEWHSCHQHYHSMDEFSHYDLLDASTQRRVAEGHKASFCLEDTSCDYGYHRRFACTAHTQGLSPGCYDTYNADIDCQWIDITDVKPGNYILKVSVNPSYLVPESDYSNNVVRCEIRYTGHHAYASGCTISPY
Excerpt: (§1) Method to Determine the Ability of Compounds of the Invention to Inhibit LOX and LOXL1-4 from Different Sources
Lysyl oxidase (LOX) is an extracellular copper dependent enzyme which oxidizes peptidyl lysine and hydroxylysine residues in collagen and lysine residues in elastin to produce peptidyl alpha-aminoadipic-delta-semialdehydes. […] There are five LOX family members; these are LOX, LOXL1, LOXL2, LOXL3 and LOXL4. LOX and LOXL family members can be acquired as recombinant active proteins from commercial sources, or extracted from animal tissues like bovine aorta, tendons, pig skin; or prepared from cell cultures. The inhibitory effects of the compounds of the present invention were tested against the given LOX-LOXL preparation using a high-throughput coupled colorimetric method (Holt A. and Palcic M., A peroxidase-coupled continuous absorbance plate-reader assay for flavin monoamine oxidases, copper-containing amine oxidases and related enzymes. Nat. Protoc. 2006; 1: 2498-2505). The assay was developed using either 384 or 96 well format. Briefly, in a standard 384 well plate assay 25 μL of a dilution of any of the isoenzymes and orthologues in 1.2 M urea, 50 mM sodium borate buffer (pH 8.2) were added into each well in the presence of 1 μM mofegiline and 0.5 mM pargyline (to inhibit SSAO and MAO-B and MAO-A, respectively). […] Twenty five μL of a reaction mixture containing twice the KM concentration of putrescine (Sigma Aldrich, e.g. 20 mM for LOX, or 10 mM for LOXL2 and LOXL3), 120 μM Amplex Red (Sigma Aldrich) and 1.5 U/mL horseradish peroxidase (Sigma Aldrich) prepared in 1.2 M urea, 50 mM sodium borate buffer (pH 8.2) were then added to the corresponding wells. The above volumes were doubled in the case of 96 wells plate. The fluorescence (RFU) was read every 2.5 min for 30 min at a range of temperatures from 37° to 45° C., excitation 565 nm and emission 590 (Optima; BMG labtech). The slope of the kinetics for each well was calculated using MARS data analysis software (BMG labtech) and this value was used to deduce the IC50 value (Dotmatics).

Human LOXL2 = biological target: T3, Human LOXL2 (Homo sapiens, UniProt Q9Y4K0); assay: LOXL2 amine oxidase inhibition, peroxidase-coupled Amplex Red assay; settings: 30 min preincubation at 37° C., putrescine substrate
T3 sequence (Q9Y4K0 26-774): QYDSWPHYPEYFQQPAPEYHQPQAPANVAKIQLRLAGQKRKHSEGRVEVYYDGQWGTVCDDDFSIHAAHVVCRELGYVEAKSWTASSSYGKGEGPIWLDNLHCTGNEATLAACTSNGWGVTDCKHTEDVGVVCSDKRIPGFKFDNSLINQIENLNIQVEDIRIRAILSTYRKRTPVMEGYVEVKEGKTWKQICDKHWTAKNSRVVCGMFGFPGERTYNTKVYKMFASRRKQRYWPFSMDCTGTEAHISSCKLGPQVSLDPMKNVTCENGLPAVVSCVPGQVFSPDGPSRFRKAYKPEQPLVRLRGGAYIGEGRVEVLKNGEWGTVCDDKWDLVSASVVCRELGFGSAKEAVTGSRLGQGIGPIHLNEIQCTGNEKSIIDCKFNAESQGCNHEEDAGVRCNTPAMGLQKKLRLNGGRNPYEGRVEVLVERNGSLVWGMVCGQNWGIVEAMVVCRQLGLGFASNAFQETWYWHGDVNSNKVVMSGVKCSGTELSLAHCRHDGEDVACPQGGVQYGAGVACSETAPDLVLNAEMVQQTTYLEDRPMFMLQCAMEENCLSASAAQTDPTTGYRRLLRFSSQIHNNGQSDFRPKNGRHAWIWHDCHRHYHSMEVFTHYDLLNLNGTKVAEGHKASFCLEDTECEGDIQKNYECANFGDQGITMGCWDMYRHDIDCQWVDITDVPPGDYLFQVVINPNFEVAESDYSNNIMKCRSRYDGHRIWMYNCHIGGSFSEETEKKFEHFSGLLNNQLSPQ
Excerpt: as §1
Lysyl oxidase (LOX) is an extracellular copper dependent enzyme which oxidizes peptidyl lysine and hydroxylysine residues in collagen and lysine residues in elastin to produce peptidyl alpha-aminoadipic-delta-semialdehydes. […] There are five LOX family members; these are LOX, LOXL1, LOXL2, LOXL3 and LOXL4. LOX and LOXL family members can be acquired as recombinant active proteins from commercial sources, or extracted from animal tissues like bovine aorta, tendons, pig skin; or prepared from cell cultures. The inhibitory effects of the compounds of the present invention were tested against the given LOX-LOXL preparation using a high-throughput coupled colorimetric method (Holt A. and Palcic M., A peroxidase-coupled continuous absorbance plate-reader assay for flavin monoamine oxidases, copper-containing amine oxidases and related enzymes. Nat. Protoc. 2006; 1: 2498-2505). The assay was developed using either 384 or 96 well format. Briefly, in a standard 384 well plate assay 25 μL of a dilution of any of the isoenzymes and orthologues in 1.2 M urea, 50 mM sodium borate buffer (pH 8.2) were added into each well in the presence of 1 μM mofegiline and 0.5 mM pargyline (to inhibit SSAO and MAO-B and MAO-A, respectively). Test compounds were dissolved in DMSO and tested in a Concentration Response Curve (CRC) with 11 data points, typically in the micromolar or nanomolar range after incubation with the enzyme for 30 min at 37° C. Twenty five μL of a reaction mixture containing twice the KM concentration of putrescine (Sigma Aldrich, e.g. 20 mM for LOX, or 10 mM for LOXL2 and LOXL3), 120 μM Amplex Red (Sigma Aldrich) and 1.5 U/mL horseradish peroxidase (Sigma Aldrich) prepared in 1.2 M urea, 50 mM sodium borate buffer (pH 8.2) were then added to the corresponding wells. The above volumes were doubled in the case of 96 wells plate. The fluorescence (RFU) was read every 2.5 min for 30 min at a range of temperatures from 37° to 45° C., excitation 565 nm and emission 590 (Optima; BMG labtech). The slope of the kinetics for each well was calculated using MARS data analysis software (BMG labtech) and this value was used to deduce the IC50 value (Dotmatics).

SMILES | IC50 (Recombinant human MAO-B) [µM] | IC50 (Bovine LOX) [µM] | IC50 (Human LOXL2) [µM]
Cc1nn(C/C(F)=C/CN)c(C(C)O)c1Cc1ccc(S(=O)(=O)N(C)C)c(Cl)c1 (stereo not shown) [Compound 36, (Z)-4-((1-(4-amino-2-fluorobut-2-en-1-yl)-5-(1-hydroxyethyl)-3-methyl-1H-pyrazol-4-yl)methyl)-2-chloro-N,N-dimethylbenzenesulfonamide] | > 30 | > 10 | < 1
Cc1nn(C/C(F)=C/CN)c(C)c1Cc1ccc(S(N)(=O)=O)c(Cl)c1 [Compound 51, (Z)-4-((1-(4-amino-2-fluorobut-2-en-1-yl)-3,5-dimethyl-1H-pyrazol-4-yl)methyl)-2-chlorobenzenesulfonamide hydrochloride] |  | < 10 | < 1
Cc1nn(C/C(F)=C/CN)c(C(C)(C)O)c1Cc1ccc(S(=O)(=O)N(C)C)c(Cl)c1 [Compound 54, (Z)-4-((1-(4-amino-2-fluorobut-2-en-1-yl)-5-(2-hydroxypropan-2-yl)-3-methyl-1H-pyrazol-4-yl)methyl)-2-chloro-N,N-dimethylbenzenesulfonamide hydrochloride] |  | > 10 | > 1
Cc1nn(C/C(F)=C/CN)c(CO)c1Cc1ccc(S(=O)(=O)N(C)C)cc1Cl [Compound 55, (Z)-4-((1-(4-amino-2-fluorobut-2-en-1-yl)-5-(hydroxymethyl)-3-methyl-1H-pyrazol-4-yl)methyl)-3-chloro-N,N-dimethylbenzenesulfonamide hydrochloride] |  | < 10 | < 1
Cc1nn(C/C(F)=C/CN)c(C(F)(F)F)c1Cc1ccc(S(=O)(=O)N(C)C)c(Cl)c1 [Compound 56, (Z)-4-((1-(4-amino-2-fluorobut-2-en-1-yl)-3-methyl-5-(trifluoromethyl)-1H-pyrazol-4-yl)methyl)-2-chloro-N,N-dimethylbenzenesulfonamide hydrochloride] |  | < 10 | < 1
Cc1c(Cc2ccc(S(=O)(=O)N(C)C)c(Cl)c2)c(C(F)(F)F)nn1C/C(F)=C/CN [Compound 57, (Z)-4-((1-(4-amino-2-fluorobut-2-en-1-yl)-5-methyl-3-(trifluoromethyl)-1H-pyrazol-4-yl)methyl)-2-chloro-N,N-dimethylbenzenesulfonamide hydrochloride] |  | < 10 | < 1
CC(C)c1nn(C/C(F)=C/CN)c(C(C)O)c1Cc1ccc(S(=O)(=O)N(C)C)cc1Cl (stereo not shown) [Compound 58, (Z)-4-((1-(4-amino-2-fluorobut-2-en-1-yl)-5-(1-hydroxyethyl)-3-isopropyl-1H-pyrazol-4-yl)methyl)-3-chloro-N,N-dimethylbenzenesulfonamide hydrochloride] |  | > 10 | < 1
Cc1nn(Cc2ccc(S(=O)(=O)N(C)C)c(Cl)c2)c(C(C)O)c1C/C(F)=C/CN (stereo not drawn) [Compound 63, (Z)-4-((4-(4-amino-2-fluorobut-2-en-1-yl)-5-(l-hydroxyethyl)-3-methyl-1H-pyrazol-1-yl)methyl)-2-chloro-N,N-dimethylbenzenesulfonamide hydrochloride] |  | < 10 | < 1
CC(C)c1nn(Cc2ccc(S(=O)(=O)N(C)C)c(Cl)c2)c(C(C)C)c1C/C(F)=C/CN [Compound 64, (Z)-4-((4-(4-amino-2-fluorobut-2-en-1-yl)-3,5-diisopropyl-1H-pyrazol-1-yl)methyl)-2-chloro-N,N-dimethylbenzenesulfonamide hydrochloride] |  | < 10 | < 1
Cc1nn(C/C(F)=C/CN)c(C(C)C)c1Cc1ccc(S(=O)(=O)N(C)C)c(Cl)c1 [Compound 65, (Z)-4-((1-(4-amino-2-fluorobut-2-en-1-yl)-5-isopropyl-3-methyl-1H-pyrazol-4-yl)methyl)-2-chloro-N,N-dimethylbenzenesulfonamide hydrochloride] |  | < 10 | < 1
Cc1c(Cc2ccc(S(=O)(=O)N(C)C)c(Cl)c2)c(C(C)C)nn1C/C(F)=C/CN [Compound 66, (Z)-4-((1-(4-amino-2-fluorobut-2-en-1-yl)-3-isopropyl-5-methyl-1H-pyrazol-4-yl)methyl)-2-chloro-N,N-dimethylbenzenesulfonamide hydrochloride] |  | < 10 | < 1
CS(=O)(=O)c1cccc(-c2cnn(C/C(F)=C/CN)c2)c1 [Compound 67, (Z)-3-fluoro-4-(4-(3-(methylsulfonyl)phenyl)-1H-pyrazol-1-yl)but-2-en-1-amine hydrochloride] |  | < 10 | < 1
